How the values were obtained:
[1] = tested on: phenyl-p-benzoquinone-induced writhing in mice; assay: phenyl-p-benzoquinone-induced writhing test for analgesic activity; type: in vivo; details: mouse, dose ranging from about 1 to 30 mg/kg p.o.
Protocol: The phenyl-p-benzoquinone-induced writhing test for analgesic activity, described in J. Pharmacol. Exp. Therap. 125, 237 (1959) is performed in mice as follows:
Mice previously fasted overnight are treated orally with the test compound dissolved in 0.75% methylcellulose at doses of 1 to 50 mg/kg, or with the vehicle alone, 55 minutes before the induction of the writhing syndrome by i.p. injection of 0.25 ml of a suspension of phenyl-p-benzoquinone (0.03%) in tragacanth (0.4%).
Starting 5 minutes, thereafter, the number of writhing movements provoked by the irritant are counted over an observation period of 10 minutes. The analgesic antinociceptive) ED50 of the test compound is the dose which reduces the mean frequency of writhing movements by 50% in comparison to the controls.

[2] = tested on: proteoglycan matrix of bovine nasal septum cartilage; assay: cartilage-synovium co-culture model of cartilage matrix degradation; type: cell-based; details: concentration range of about 10^-7 M to 10^-5 M
Protocol: The compounds of the invention are also active in the cartilage-synovium co-culture model of cartilage matrix degradation, indicative of their effectiveness in osteoarthritis. The screen is carried out as follows:
The proteoglycan matrix of bovine nasal septum cartilage is labeled into vitro by incorporation of ^35 S into glycosaminoglycan. Cartilage slices are incubated overnight in a sulfate-free medium containing ^35 S-sodium sulfate. ^35 S-Labeled cartilage slices are co-cultured with normal synovium explants in multiwell tissue culture plates. After 4 days incubation a 100 μl aliquot of medium is counted. Cartilage slices are hydrolyzed and a 100 μl aliquot of cartilage hydrolysate is counted. The percent ^35 S released into the medium is determined and the percent of inhibition of matrix degradation is calculated.

[3] = tested on: established adjuvant arthritis in the rat; assay: established adjuvant arthritis test; type: in vivo; details: dose ranging from about 5 to 25 mg/kg/p.o.
Protocol: The established adjuvant arthritis test for anti-arthritic activity is performed essentially as described in Proc. Soc. Biol. Med. 137, 506 (1971).

[4] = tested on: BCG-immunized adjuvant arthritic rat; assay: skin test (delayed hypersensitivity) in the BCG-immunized adjuvant arthritic rat; type: in vivo; details: 25 mg/kg/p.o.
Protocol: The enhancement of cell-mediated immunity is determined in vivo in the BCG-immunized arthritic rat by measurement of delayed hypersensitivity reaction essentially as described in Current Therapeutic Research 30, S34 (1981).
Charles River male rats weighing 325-400 g are sensitized by intradermal injection into the right hind foot pad with […] per animal of Mycobacterium tuberculosis (Difco) emulsified in Freund's incomplete adjuvant. Animals are immunized with 0.1 ml of BCG vaccine intradermally on day 18 after adjuvant injection. Corn starch suspensions of drugs are administered orally. Control animals are dosed with cornstarch vehicle only. All animals are skin-tested with 10 μg PPD intradermally on day 29 to elicit skin reactions. The diameter of the erythema and induration reaction is measured 24 hours after antigen challenge. An increase in the diameter of the erythema is indicative of enhanced cellular immunity.

| SMILES | activity in the phenyl-p-benzoquinone test for analgesia [1] | inhibition of cartilage matrix degradation in vitro [2] | activity in the established adjuvant arthritis test [3] | activity in the skin test (immunopotentiating activity) [4] |
| --- | --- | --- | --- | --- |
| N#CC(C(=O)Nc1ccc(Cl)cc1)C(=O)c1ccc[nH]1 (stereo not drawn) [Example 2, β-oxo-α-(4-chlorophenylcarbamoyl)-β-(2-pyrrolyl)propionitrile] | active | inhibit cartilage matrix degradation | active | significant activity |
| N#CC(C(=O)Nc1ccccc1)C(=O)c1ccc[nH]1 (stereo not drawn) [Example 1, β-oxo-α-(phenylcarbamoyl)-β-(2-pyrrolyl)-propionitrile] | active | inhibit cartilage matrix degradation | active | significant activity |
| N#CC(C(=O)Nc1ccc(F)cc1)C(=O)c1ccc[nH]1 (stereo not drawn) [Example 5, β-oxo-α-(4-fluorohenylcarbamoyl)-β-(2-pyrrolyl)-propionitrile] | active |  | active |  |
| N#CC(C(=O)Nc1ccc(F)cc1F)C(=O)c1ccc[nH]1 (stereo not drawn) [Example 3, β-oxo-α-(2,4-difluorophenylcarbamoyl)-β-(2-pyrrolyl)-propionitrile] | active | inhibit cartilage matrix degradation | active |  |

Reference: patent US4644010A, “Certain β-oxo-α-carbamoylpyrrolepropionitriles” (Ciba-Geigy Corporation, priority 1984, dated 1987)
